Laboratory results from PubChem BioAssay AID330 (DTP/NCI, 2004).
Several values for one entry are separate records, joined by “and”; a condition that tells them apart may be missing. Equal entries are not always repeated. Toxic doses and inconclusive results are not listed. How the source made its calls: active means survival T/C of 150% or more; inactive means T/C below 125% in these data.

Test system: P388 leukemia ip, CD2F1 mice, survival T/C
Test: NCI In Vivo Anticancer Drug Screen. Data for tumor model P388 Leukemia (intraperitoneal) in CD2F1 (CDF1) mice
Settings: endpoint: median survival time, higher = longer survival
Method in brief: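 Mice carrying the transplanted tumor received test compound or vehicle. Survival was recorded in each group, and the value is the treated-group measurement divided by that of the vehicle-treated control group.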

[1] = dose: 12.5 mg/kg/injection, schedule: Q01DX005 (ip), vehicle: saline with Tween-80
[2] = dose: 25.0 mg/kg/injection, schedule: Q01DX005 (ip), vehicle: Klucel (hydroxypropylcellulose) (HPC)
[3] = dose: 100.0 mg/kg/injection, schedule: Q01DX001 (ip), vehicle: saline with Tween-80
[4] = dose: 50.0 mg/kg/injection, schedule: Q04DX003 (ip), vehicle: saline sonified
[5] = dose: 100.0 mg/kg/injection, schedule: Q01DX009 (ip), vehicle: saline with Tween-80
[6] = dose: 200.0 mg/kg/injection, schedule: Q01DX009 (ip), vehicle: saline with Tween-80
[7] = dose: 400.0 mg/kg/injection, schedule: Q01DX009 (ip), vehicle: saline with Tween-80
[8] = dose: 50.0 mg/kg/injection, schedule: Q01DX009 (ip), vehicle: saline with Tween-80
[9] = dose: 60.0 mg/kg/injection, schedule: Q01DX005 (ip), vehicle: saline with Tween-80
[10] = dose: 120.0 mg/kg/injection, schedule: Q01DX005 (ip), vehicle: saline with Tween-80
[11] = dose: 240.0 mg/kg/injection, schedule: Q01DX005 (ip), vehicle: saline with Tween-80
[12] = dose: 25.0 mg/kg/injection, schedule: Q01DX009 (ip), vehicle: saline with Tween-80
[13] = dose: 50.0 mg/kg/injection, schedule: Q01DX005 (ip), vehicle: saline with Tween-80
[14] = dose: 100.0 mg/kg/injection, schedule: Q01DX005 (ip), vehicle: saline with Tween-80

Measured: T/C

COc1ccc(C(C)c2cc3c(cc2OC)OCO3)cc1 (stereo not given)
inactive: [1] 101 % of control and 109 % of control and 95 % of control | dose: 25.0 mg/kg/injection, schedule: Q01DX005 (ip), vehicle: saline + alcohol 92 % of control | dose: 50.0 mg/kg/injection, schedule: Q01DX005 (ip), vehicle: saline + alcohol 91 % of control | dose: 100.0 mg/kg/injection, schedule: Q01DX005 (ip), vehicle: saline + alcohol 93 % of control | dose: 200.0 mg/kg/injection, schedule: Q01DX005 (ip), vehicle: saline + alcohol 106 % of control

O=C1c2ccccc2C(=O)C2C1C1(c3ccccc3)OC2(c2ccccc2)c2ccccc21 (stereo not given)
inactive: [2] 101 % of control | dose: 50.0 mg/kg/injection, schedule: Q01DX005 (ip), vehicle: Klucel (hydroxypropylcellulose) (HPC) 99 % of control | dose: 100.0 mg/kg/injection, schedule: Q01DX005 (ip), vehicle: Klucel (hydroxypropylcellulose) (HPC) 101 % of control

O=C(c1ccccc1)c1c(-c2ccccc2)c(=O)n2c(sc3ccccc32)c1C(=O)c1ccccc1
inactive: [3] 93 % of control | dose: 200.0 mg/kg/injection, schedule: Q01DX001 (ip), vehicle: saline with Tween-80 100 % of control | dose: 400.0 mg/kg/injection, schedule: Q01DX001 (ip), vehicle: saline with Tween-80 109 % of control

CC(C)N=Cc1ccccc1O.CC(C)N=Cc1ccccc1O.[Co]
inactive: dose: 12.5 mg/kg/injection, schedule: Q04DX003 (ip), vehicle: saline sonified 110 % of control | dose: 25.0 mg/kg/injection, schedule: Q04DX003 (ip), vehicle: saline sonified 100 % of control | [4] 105 % of control

COc1ccc(OC)c(/C=C/c2ccc3ccccc3n2)c1
inactive: [5] 90 % of control | [6] 90 % of control | [7] 104 % of control

Nc1ncnc2c1cnn2Cc1ccc(Cl)cc1
inactive: [8] 100 % of control | [5] 100 % of control

CCn1cc(C(=O)O)c(=O)c2cc(F)c(-n3cccc3)cc21
inactive: [9] 101 % of control | [10] 99 % of control | [11] 98 % of control

COc1ccc(S(=O)(=O)N/N=C/C(=O)O)cc1
active: dose: 25.0 mg/kg/injection, schedule: Q01DX009 (ip), vehicle: other 162 % of control | dose: 50.0 mg/kg/injection, schedule: Q01DX005 (ip), vehicle: distilled water + Tween-80 154 % of control | dose: 50.0 mg/kg/injection, schedule: Q01DX009 (ip), vehicle: other 158 % of control and 159 % of control | dose: 100.0 mg/kg/injection, schedule: Q01DX005 (ip), vehicle: distilled water + Tween-80 182 % of control
inactive: dose: 6.25 mg/kg/injection, schedule: Q01DX009 (ip), vehicle: other 116 % of control | [1] 118 % of control

NC(=S)/C(N)=N/Nc1ccc(Cl)cc1
inactive: dose: 6.25 mg/kg/injection, schedule: Q01DX009 (ip), vehicle: saline with Tween-80 104 % of control | dose: 12.5 mg/kg/injection, schedule: Q01DX009 (ip), vehicle: saline with Tween-80 103 % of control | [12] 106 % of control | [8] 116 % of control

OC1CC2CCCCC2CC1(O)c1ccc(OCc2ccccc2)c(OCc2ccccc2)c1 (stereo not given)
inactive: dose: 25.0 mg/kg/injection, schedule: Q01DX001 (ip), vehicle: saline with Tween-80 92 % of control | dose: 50.0 mg/kg/injection, schedule: Q01DX001 (ip), vehicle: saline with Tween-80 88 % of control | [3] 86 % of control

CCCCCCCCCC[N+]1(CC)CCCC1
inactive: dose: 3.12 mg/kg/injection, schedule: Q01DX009 (ip), vehicle: saline 104 % of control | dose: 6.25 mg/kg/injection, schedule: Q01DX009 (ip), vehicle: saline 100 % of control

C=C1C(=O)OCC1(C(=O)OCC)C(=O)OCC
inactive: dose: 4.0 mg/kg/injection, schedule: Q01DX009 (ip), vehicle: saline with Tween-80 117 % of control | dose: 8.0 mg/kg/injection, schedule: Q01DX009 (ip), vehicle: saline with Tween-80 117 % of control and 124 % of control | dose: 16.0 mg/kg/injection, schedule: Q01DX009 (ip), vehicle: saline with Tween-80 115 % of control | dose: 32.0 mg/kg/injection, schedule: Q01DX009 (ip), vehicle: saline with Tween-80 115 % of control

C/C(=N\N=C(/[Se])N1CCC(C)CC1)c1ccccn1
inactive: [13] 107 % of control | [14] 100 % of control | dose: 200.0 mg/kg/injection, schedule: Q01DX005 (ip), vehicle: saline with Tween-80 100 % of control

O=c1c2cc(Br)ccc2nc2n1N=C(c1ccccc1)C(c1ccccc1)=NN2
inactive: dose: 50.0 mg/kg/injection, schedule: Q04DX002 (ip), vehicle: Klucel (hydroxypropylcellulose) (HPC) 88 % of control | dose: 100.0 mg/kg/injection, schedule: Q04DX002 (ip), vehicle: Klucel (hydroxypropylcellulose) (HPC) 91 % of control | dose: 200.0 mg/kg/injection, schedule: Q04DX002 (ip), vehicle: Klucel (hydroxypropylcellulose) (HPC) 87 % of control

CC1=C(CCC(C)CO)OC2CC3C4CCC5CC(O)CCC5(C)C4CCC3(C)C12 (stereo not given)
inactive: dose: 25.0 mg/kg/injection, schedule: Q01DX009 (ip), vehicle: suspension in saline 90 % of control and 95 % of control | dose: 50.0 mg/kg/injection, schedule: Q01DX009 (ip), vehicle: suspension in saline 96 % of control | dose: 100.0 mg/kg/injection, schedule: Q01DX009 (ip), vehicle: suspension in saline 88 % of control and 94 % of control | dose: 200.0 mg/kg/injection, schedule: Q01DX009 (ip), vehicle: suspension in saline 87 % of control and 89 % of control

CSc1nc(N)c(NS(=O)(=O)c2ccc(NC(C)=O)cc2)c(=O)[nH]1
inactive: [9] 93 % of control | [10] 91 % of control | [11] 96 % of control

CCC(CC)N(C)C(C)(C)CO
inactive: [4] 96 % of control | dose: 100.0 mg/kg/injection, schedule: Q04DX003 (ip), vehicle: saline sonified 100 % of control

C/C=C1\C[C@H]2C(=O)Nc3cc(O)c(OC)cc3C(=O)N2C1
inactive: dose: 25.0 mg/kg/injection, schedule: Q01DX005 (ip), vehicle: saline with Tween-80 96 % of control | [13] 105 % of control | [14] 106 % of control

CC(C)(C)c1cc(C(C)(C)c2ccccc2)cc(Cc2cc(C(C)(C)c3ccccc3)cc(C(C)(C)C)c2O)c1O
inactive: [8] 92 % of control | [5] 94 % of control | [6] 93 % of control | [7] 89 % of control

CCOC(=O)CCC1CCCCC1=O (stereo not given)
inactive: [8] 103 % of control | [5] 93 % of control | [6] 103 % of control

Cc1ccn2ncnc2c1
inactive: [8] 101 % of control | [5] 102 % of control | [6] 91 % of control

O=C(/C=C\c1ccc(NCc2ccc(C(=O)O)cc2)cc1)CCl
inactive: [12] 122 % of control | dose: 25.0 mg/kg/injection, schedule: Q04DX003 (ip), vehicle: saline with Tween-80 100 % of control | [8] 122 % of control | dose: 50.0 mg/kg/injection, schedule: Q04DX003 (ip), vehicle: saline with Tween-80 104 % of control | dose: 100.0 mg/kg/injection, schedule: Q04DX003 (ip), vehicle: saline with Tween-80 109 % of control

C1CC[N-]CC1.C1CC[N-]CC1.[Cl][Pt+2][Cl]
inactive: [2] 119 % of control and 120 % of control

CSC(=S)S(=O)(=O)C12CC3CC(CC(C3)C1)C2
inactive: dose: 6.25 mg/kg/injection, schedule: Q01DX009 (ip), vehicle: Klucel (hydroxypropylcellulose) (HPC) 111 % of control | dose: 25.0 mg/kg/injection, schedule: Q01DX009 (ip), vehicle: Klucel (hydroxypropylcellulose) (HPC) 113 % of control and 114 % of control

C=C1C(=O)C23CCC4C5(C)CCCC4(C4OCCN4C5)C2CCC1C3 (stereo not given)
inactive: dose: 1.0 mg/kg/injection, schedule: Q01DX009 (ip), vehicle: Klucel (hydroxypropylcellulose) (HPC) 104 % of control | dose: 2.0 mg/kg/injection, schedule: Q01DX009 (ip), vehicle: Klucel (hydroxypropylcellulose) (HPC) 107 % of control | dose: 4.0 mg/kg/injection, schedule: Q01DX009 (ip), vehicle: Klucel (hydroxypropylcellulose) (HPC) 95 % of control | dose: 8.0 mg/kg/injection, schedule: Q01DX009 (ip), vehicle: Klucel (hydroxypropylcellulose) (HPC) 95 % of control

O=C1Cc2nc3ccccc3nc2CC(=O)c2ccccc21
inactive: dose: 50.0 mg/kg/injection, schedule: Q04DX002 (ip), vehicle: saline with Tween-80 90 % of control | dose: 100.0 mg/kg/injection, schedule: Q04DX002 (ip), vehicle: saline with Tween-80 87 % of control | dose: 200.0 mg/kg/injection, schedule: Q04DX002 (ip), vehicle: saline with Tween-80 90 % of control

CN(C)c1ccc(/C=C/c2ccnc3ccc4ccccc4c23)cc1
inactive: [8] 98 % of control | [5] 100 % of control | [6] 110 % of control

COc1c(OC)c(C2(O)C(=O)N(C)c3ccccc32)c(OC)c(OC)c1C1(O)C(=O)N(C)c2ccccc21 (stereo not given)
inactive: [9] 88 % of control | [10] 87 % of control | [11] 87 % of control
